Assays:
[1] = system: Nuclear hormone (NHR) receptors; test: All β-gal nuclear hormone receptor (NHR) screens; format: cell-based
Procedure: Receptor Binding Assays. Nuclear hormone (NHR) assays were performed by DiscoverX (Fremont, CA) on their NHR-Scan platform of cell-based protein-protein interaction assays. This platform uses a […] reporter that activates upon interaction of full-length receptor protein with steroid coactivator receptor peptides. In agonist mode, activity of CL2-57 at 10 μM was compared to maximal activity of published positive control agonists; in antagonist mode, reduction in activity with 10 μM CL2-57 from that observed at […] of published agonists was quantified.

LXRβ = target: T1, LXRβ (Homo sapiens, UniProt P55055); test: LanthaScreen TR-FRET coactivator assay LXRβ; format: biochemical
T1 construct: purchased Thermo Fisher Scientific
T1 sequence (P55055 212-460 limits assumed): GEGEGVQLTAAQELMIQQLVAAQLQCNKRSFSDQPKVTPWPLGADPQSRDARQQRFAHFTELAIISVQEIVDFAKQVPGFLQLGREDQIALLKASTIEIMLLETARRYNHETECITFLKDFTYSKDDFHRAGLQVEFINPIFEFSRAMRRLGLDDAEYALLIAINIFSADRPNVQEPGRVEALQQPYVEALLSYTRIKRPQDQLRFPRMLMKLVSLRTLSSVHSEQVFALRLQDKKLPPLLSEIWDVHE
Procedure: TR-FRET Receptor Binding Assays. LanthaScreen” TR-FRET coactivator assay kits for LXRβ (Thermo Fisher Scientific) and PPARγ (Thermo Fisher Scientific) were performed according to manufacturer instructions using low-binding black 384-well plates and Synergy Neo2 plate reader. […] Each compound dose was performed in quadruplicate on each plate, and each experiment was performed in triplicate.

PPARγ = target: T2, PPARγ (Homo sapiens, UniProt P37231); test: LanthaScreen TR-FRET coactivator assay PPARγ (antagonism of pioglitazone); format: biochemical
T2 construct: purchased Thermo Fisher Scientific
T2 sequence (P37231 232-505 limits assumed): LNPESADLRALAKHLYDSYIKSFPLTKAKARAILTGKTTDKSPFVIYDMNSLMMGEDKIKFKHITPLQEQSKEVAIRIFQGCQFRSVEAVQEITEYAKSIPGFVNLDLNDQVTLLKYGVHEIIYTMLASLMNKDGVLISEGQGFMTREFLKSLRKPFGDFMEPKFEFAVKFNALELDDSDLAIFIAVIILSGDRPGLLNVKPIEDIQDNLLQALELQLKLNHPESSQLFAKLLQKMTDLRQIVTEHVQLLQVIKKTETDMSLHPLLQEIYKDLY
Procedure: TR-FRET Receptor Binding Assays. LanthaScreen” TR-FRET coactivator assay kits for LXRβ (Thermo Fisher Scientific) and PPARγ (Thermo Fisher Scientific) were performed according to manufacturer instructions using low-binding black 384-well plates and Synergy Neo2 plate reader. For the PPARγ assay, standardization was first performed with control agonist (pioglitazone), then run in two antagonist assays: dose-response of pioglitazone with or without a single concentration of CL2-57, and dose-response of CL2-57 cotreated with a single concentration (500 nM) of pioglitazone. Each compound dose was performed in quadruplicate on each plate, and each experiment was performed in triplicate.

ABCA1 [2] = test: ABCA1-linked luciferase assay in HepG2 cells; format: cell-based; settings: Homo sapiens; HepG2 liver cells; Example 2, compounds active in ABCA1-Luc assay; read-out: EC50 in HepG2 liver cells
Procedure: Luciferase. HepG2 cells (RRID:CVCL 0027) purchased from ATCC and used without further validation were stably transfected with pGreenFire1-LXRE-in-ABCA1 plasmid, which contains the ABCA1 promoter sequence linked to a luciferase response element, then selected over multiple generations with puromycin and frozen in liquid N2. For assays, transfected cells were plated 24 hours in medium (Gibco) containing charcoal-stripped serum (Gemini), followed by a 24-hour treatment. Cells were lysed with passive lysis buffer (Promega), frozen at −80° C. for 15 minutes, and shaken at room temperature for 2 hours before quantification with luciferase assay system (Promega) on a Synergy Neo2 plate reader.

ABCA1 [3] = test: ABCA1 firefly reporter assay in CCF-001 cells; format: cell-based; settings: ABCA1 firefly reporter assay in CCF-001 cells (Table 8)
E3/4FAD mice = test: E3/4FAD (EFAD) mice treated with CL3-3; format: in vivo, mouse
Procedure: A longer-term study was conducted in EFAD mice, which express the same five human AD mutations as 5×FAD mice and have also undergone targeted replacement of the mouse Apoe gene with one of the human APOE alleles: ε2, ε3, or ε4. In this study, EFAD mice with heterozygous ε3/ε4 alleles (E3/4FAD) were treated from 4 months of age until 6 months of age with CL3-3 (100 mg/kg/day in hydrogel replacement of drinking water) or vehicle.
Multiple readouts of AD-related pathology were conducted with subsets of these mice. Brain regions were first analyzed via ELISA for levels of soluble, oligomeric Aβ (oAβ), which is hypothesized to be the toxic form of amyloid that underlies downstream pathology and clinical presentation associated with AD. In E3/4FAD mice, oAβ levels decreased in the hippocampus in male mice and in the cerebral cortex in female mice. Treatment with CL3-3 also was synaptoprotective in cerebral cortex regions, particularly in male mice. Expression of synaptic proteins drebrin and PSD95 were increased in male E3/4FAD mice treated with CL3-3, as determined by western blot analysis.
The remaining subset of brain hemispheres from the treated E3/4FAD mice were fixed and analyzed by staining with thioflavin S (Thio-S). Thio-S is a fluorescent dye that binds to abnormally folded protein aggregates (i.e., amyloid).

ABCA1 mRNA = ABCA1 mRNA - HepG2 (qRT-PCR); format: cell-based, human; settings: Homo sapiens; ABCA1 mRNA-HepG2 assay (Table 7)
Excerpt: qRT-PCR. For cell samples, treated cells were lysed with RLT plus lysis buffer (Qiagen). RNA was isolated with Qiagen RNEASY® Plus columns per manufacturer instructions, then reverse-transcribed to cDNA using […]® III Reverse Transcriptase (200 U/μL, Invitrogen) per supplier protocol. qPCR experiments were either performed with TAQMAN® gene expression master mix (Invitrogen) on a StepOne™ qPCR instrument or with […]® SYBR® Green SuperMix (Quanta Biosciences) on CFX Connect™ Real-Time PCR Detection System (BioRad), with fold-change quantified by ΔΔCt. For animal samples, 100 mg tissue was homogenized in 1 mL acid-guanidinium-phenol based reagent sold under the tradename TRIZOL® (Ambion), mixed vigorously in chloroform, and separated by centrifugation. Aqueous layer containing RNA was added to Qiagen RNEASY® Plus column; remaining stops were as described above for cell lysates.

5×FAD mice = 5×FAD mice treated with CL3-3; format: in vivo, mouse; settings: female 5×FAD mice, 10 mg/kg PO daily, 10 days
Procedure: To evaluate preclinical efficacy, CL3-3 was studied in 5×FAD mice. […] Female 5×FAD mice (JAX) at 16 weeks of age were treated for 10 days with either CL3-3 (10 mg/kg PO gavage daily) or vehicle. Upon completion of treatment, mouse whole brain hemispheres were analyzed for mRNA expression levels of pro-inflammatory markers including CCL2, CCL3, CCL5 CXCL10, IL-6, COX2 and NOS2. Plasma from the same mice was analyzed.

Row | SMILES | Activity in all of the β-gal screens [1] | Activity in LXRβ TR-FRET binding assay (LXRβ) | Activity in PPARγ TR-FRET binding assay (PPARγ) | EC50 (ABCA1 [2]) [nM] | EC50 (ABCA1 [3]) [nM] | % area stained by Thio-S (E3/4FAD mice; all measured brain regions, males and females) | Expression of synaptic proteins drebrin and PSD95 (E3/4FAD mice; male E3/4FAD mice, western blot) | EC50 (ABCA1 mRNA) [nM] | Brain mRNA levels of inflammatory markers (CCL2, CCL3, CCL5, CXCL10, IL-6, COX2, NOS2) (5×FAD mice) | Circulating TG levels (5×FAD mice)
1 | CCOc1ccc(N(C)S(=O)(=O)c2cc(Cl)sc2C(=O)Nc2cccc(C(=O)O)c2)cc1OCC [CL2-129, 3-(5-Chloro-3-(N-(3,4-diethoxyphenyl)-N-methylsulfamoyl)thiophene-2-carboxamido)benzoic acid] | inactive | inactive | inactive | – | – | – | – | – | – | –
2 | CCOC(=O)c1cc(Cl)cc(NC(=O)c2sc(Cl)cc2S(=O)(=O)N(C)c2ccc(OCC)c(OC)c2)c1 [CL3-3, Ethyl 3-chloro-5-(5-chloro-3-(N-(4-ethoxy-3-methoxyphenyl)-N-methylsulfamoyl)thiophene-2-carboxamido) benzoate] | – | – | – | 300 | 99 | decreased | increased | 300 | reduced | not significantly altered
